Reference: patent publication US12599136B2, “Substituted isophthalic acid diamides and their use as herbicides” (Bayer Aktiengesellschaft, priority 2020, dated 2026)

Assays:
Format in all cases: in vivo
Setaria viridis [1] = assay: Pre-emergence herbicidal action against SETVI
Outline: (§1)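 Visual rating at 3 weeks vs untreated pots; 0–100% scale, 100% = plants died. Treatment: aqueous WP/EC spray onto covering soil, 600–800 l/ha, 0.2% wetter, seeds in sandy loam.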

Avena fatua [2] = assay: Post-emergence herbicidal action against AVEFA; details: 80 g/ha, visual assessment about 3 weeks after treatment
Outline: (§2)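 Greenhouse pot plants in sandy loam were sprayed at the one-leaf stage, 2 to 3 weeks after sowing, with WP or EC formulations as aqueous suspension or emulsion (600 to 800 l/ha water, 0.2% wetting agent). About 3 weeks later, damage was scored visually against untreated controls as % action (100% = dead, 0% = like control).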

Matricaria inodora [3] = assay: Post-emergence herbicidal action against MATIN; details: 80 g/ha, visual assessment about 3 weeks after treatment
Outline: as §2

Stellaria media [4] = assay: Post-emergence herbicidal action against STEME; details: visual assessment about 3 weeks after treatment
Outline: as §2

Viola tricolor [5] = assay: Post-emergence herbicidal action against VIOTR; details: 80 g/ha
Outline: as §2

Abutilon theophrasti [6] = assay: Pre-emergence herbicidal action against ABUTH; details: visual score after 3 weeks vs untreated controls
Outline: as §1

Alopecurus myosuroides [7] = assay: Post-emergence herbicidal action against ALOMY; details: 80 g/ha
Outline: as §2

Matricaria inodora [8] = assay: Pre-emergence herbicidal action against MATIN; details: visual score after 3 weeks vs untreated controls
Outline: as §1

Amaranthus retroflexus [9] = assay: Post-emergence herbicidal action against AMARE; details: visual assessment about 3 weeks after treatment
Outline: as §2

Hordeum murinum [10] = assay: Pre-emergence herbicidal action against HORMU; details: 320 g/ha; visual score after 3 weeks vs untreated controls
Source text: Seeds of monocotyledonous and dicotyledonous weed plants and crop plants are laid out in sandy loam soil in wood-fiber pots and covered with soil. The compounds of the invention, formulated in the form of wettable powders (WP) or as emulsion concentrates (EC), are then applied to the surface of the covering soil in the form of an aqueous suspension or emulsion at a water application rate equivalent to 600 to 800 l/ha, with addition of 0.2% wetting agent. After the treatment, the pots are placed in a greenhouse and kept under good growth conditions for the trial plants. The damage to the test plants is scored visually after a test period of 3 weeks by comparison with untreated controls (herbicidal activity in percent (%): 100% activity=the plants have died, 0% activity=like control plants). […] The tables below illustrate, in an illustrative manner, the post-emergence herbicidal action of the compounds of the invention, the herbicidal activity being stated in percent.

Alopecurus myosuroides [11] = assay: Pre-emergence herbicidal action against ALOMY; details: visual score after 3 weeks vs untreated controls
Outline: as §1

Echinochloa crus-galli [12] = assay: Pre-emergence herbicidal action against ECHCG; details: visual score after 3 weeks vs untreated controls
Outline: as §1

Hordeum murinum [13] = assay: Post-emergence herbicidal action against HORMU; details: 80 g/ha
Experimental: Seeds of monocotyledonous and dicotyledonous weed and crop plants are laid out in sandy loam soil in wood-fiber pots, covered with soil and cultivated in a greenhouse under good growth conditions. 2 to 3 weeks after sowing, the test plants are treated at the one-leaf stage. The compounds of the invention, formulated in the form of wettable powders (WP) or as emulsion concentrates (EC), are then sprayed onto the green parts of the plants in the form of an aqueous suspension or emulsion at a water application rate equivalent to 600 to 800 l/ha, with addition of 0.2% wetting agent. After the test plants have been left to stand in the greenhouse under optimal growth conditions for about 3 weeks, the action of the preparations is assessed visually in comparison to untreated controls (herbicidal action in percent (%): 100% activity=the plants have died, 0% activity=like control plants). […] The tables below illustrate, in an illustrative manner, the post-emergence herbicidal action of the compounds of the invention, the herbicidal activity being stated in percent.

Avena fatua [14] = assay: Pre-emergence herbicidal action against AVEFA; details: visual score after 3 weeks vs untreated controls
Outline: as §1

Polygonum convolvulus = assay: Pre-emergence herbicidal action against POLCO; details: 320 g/ha
Outline: as §1

Abutilon theophrasti [15] = assay: Post-emergence herbicidal action against ABUTH
Outline: as §2

Viola tricolor [16] = assay: Pre-emergence herbicidal action against VIOTR
Outline: as §1

Lolium rigidum = assay: Pre-emergence herbicidal action against LOLRI; details: 320 g/ha
Outline: as §1

Echinochloa crus-galli [17] = assay: Post-emergence herbicidal action against ECHCG; details: visual assessment about 3 weeks after treatment
Outline: as §2

Cyperus esculentus = assay: Pre-emergence herbicidal action against CYPES; details: visual score after 3 weeks vs untreated controls
Outline: as §1

Setaria viridis [18] = assay: Post-emergence herbicidal action against SETVI; details: 80 g/ha, visual assessment about 3 weeks after treatment
Outline: as §2

Veronica persica [19] = assay: Post-emergence herbicidal action against VERPE; details: visual assessment about 3 weeks after treatment
Outline: as §2

Pharbitis purpurea = assay: Post-emergence herbicidal action against PHBPU; details: visual assessment about 3 weeks after treatment
Outline: as §2

Stellaria media [20] = assay: Pre-emergence herbicidal action against STEME
Outline: as §1

Amaranthus retroflexus [21] = assay: Pre-emergence herbicidal action against AMARE; details: visual score after 3 weeks vs untreated controls
Outline: as §1

Veronica persica [22] = assay: Pre-emergence herbicidal action against VERPE; details: 320 g/ha
Outline: as §1

## CN(C(=O)c1c(Cl)ccc(C(=O)Nc2nnnn2C)c1Cl)c1ccccc1 [Example 1-398]
Setaria viridis [1]; 80 g/ha
  Pre-emergence action against SETVI: 100%
Setaria viridis [1]; 320 g/ha
  Pre-emergence action against SETVI: 100%
Avena fatua [2]
  Post-emergence action against AVEFA in %: 80%
Matricaria inodora [3]
  Post-emergence action against MATIN in %: 90%
Stellaria media [4]; 5 g/ha
  Post-emergence action against STEME in %: 80%
Stellaria media [4]; 20 g/ha
  Post-emergence action against STEME in %: 90%
Stellaria media [4]; 80 g/ha
  Post-emergence action against STEME in %: 100%
Viola tricolor [5]
  Post-emergence action against VIOTR in %: 90%
Abutilon theophrasti [6]; 20 g/ha
  Pre-emergence action against ABUTH: 100%
Abutilon theophrasti [6]; 80 g/ha
  Pre-emergence action against ABUTH: 100%
Abutilon theophrasti [6]; Dosage column 320 g/ha (heading prints 3200 g/ha)
  Pre-emergence action against ABUTH: 100%
Alopecurus myosuroides [7]
  Post-emergence action against ALOMY: 100%
Matricaria inodora [8]; 20 g/ha
  Pre-emergence action against MATIN: 90%
Matricaria inodora [8]; 80 g/ha
  Pre-emergence action against MATIN: 100%
Matricaria inodora [8]; 320 g/ha
  Pre-emergence action against MATIN: 100%
Amaranthus retroflexus [9]; 5 g/ha
  Post-emergence action against AMARE in %: 80%
Amaranthus retroflexus [9]; 20 g/ha
  Post-emergence action against AMARE in %: 100%
Amaranthus retroflexus [9]; 80 g/ha
  Post-emergence action against AMARE in %: 100%
Hordeum murinum [10]
  Pre-emergence action against HORMU: 100%
Alopecurus myosuroides [11]; 20 g/ha
  Pre-emergence action against ALOMY: 80%
Alopecurus myosuroides [11]; 80 g/ha
  Pre-emergence action against ALOMY: 100%
Alopecurus myosuroides [11]; 320 g/ha
  Pre-emergence action against ALOMY: 100%
Echinochloa crus-galli [12]; 80 g/ha
  Pre-emergence action against ECHCG: 80%
Echinochloa crus-galli [12]; 320 g/ha
  Pre-emergence action against ECHCG: 100%
Hordeum murinum [13]
  Post-emergence action against HORMU in %: 80%
Avena fatua [14]; 80 g/ha
  Pre-emergence action against AVEFA: 80%
Avena fatua [14]; 320 g/ha
  Pre-emergence action against AVEFA: 90%
Polygonum convolvulus
  Pre-emergence action against POLCO: 100%
Abutilon theophrasti [15]; 20 g/ha
  Post-emergence action against ABUTH: 100%
Abutilon theophrasti [15]; 80 g/ha
  Post-emergence action against ABUTH: 100%
Viola tricolor [16]; 80 g/ha
  Pre-emergence action against VIOTR: 80%
Viola tricolor [16]; 320 g/ha
  Pre-emergence action against VIOTR: 100%
Lolium rigidum
  Pre-emergence action against LOLRI: 90%
Echinochloa crus-galli [17]; 20 g/ha
  Post-emergence action against ECHCG in %: 100%
Echinochloa crus-galli [17]; 80 g/ha
  Post-emergence action against ECHCG in %: 100%
Cyperus esculentus; 80 g/ha
  Pre-emergence action against CYPES: 80%
Cyperus esculentus; 320 g/ha
  Pre-emergence action against CYPES: 90%
Setaria viridis [18]
  Post-emergence action against SETVI in %: 100%
Veronica persica [19]; 20 g/ha
  Post-emergence action against VERPE in %: 80%
Veronica persica [19]; 80 g/ha
  Post-emergence action against VERPE in %: 90%
Pharbitis purpurea; 20 g/ha
  Post-emergence action against PHBPU in %: 80%
Pharbitis purpurea; 80 g/ha
  Post-emergence action against PHBPU in %: 80%
Stellaria media [20]; 20 g/ha
  Pre-emergence action against STEME: 90%
Stellaria media [20]; 80 g/ha
  Pre-emergence action against STEME: 100%
Stellaria media [20]; 320 g/ha
  Pre-emergence action against STEME: 100%
Amaranthus retroflexus [21]; 20 g/ha
  Pre-emergence action against AMARE: 90%
Amaranthus retroflexus [21]; 80 g/ha
  Pre-emergence action against AMARE: 100%
Amaranthus retroflexus [21]; 320 g/ha
  Pre-emergence action against AMARE: 100%
Veronica persica [22]
  Pre-emergence action against VERPE: 100%
